Results: patent US10857105B2, “Compounds and compositions for intracellular delivery of therapeutic agents” (ModernaTX, Inc., priority 2017, dated 2020)

Columns and labels:
[1] = Particle size and polydispersity index of nanoparticle compositions (Zetasizer Nano ZS); assay type: physicochemical
In short: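 Size and PDI measured by Zetasizer Nano ZS in 1×PBS (zeta potential in 15 mM PBS). Lipid nanoparticles contained test ionizable lipid:DSPC:cholesterol:PEG-DMG at 50:10:38.5:1.5 mol % with N1-methyl-pseudouridine mRNA encoding luciferase or hEPO.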

[2] = Encapsulation efficiency of RNA in nanoparticle compositions (RIBOGREEN assay); assay type: physicochemical
In short: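 Lipid nanoparticles (ionisable lipid:DSPC:cholesterol:PEG-DMG 50:10:38.5:1.5 mol %) carrying N1-methylpseudouridine luciferase or hEPO mRNA diluted to about 5 μg/mL in TE, pH 7.5, with or without 2% Triton X-100, 15 min at 37° C. RiboGreen fluorescence (ex ~480, em ~520 nm) blank-subtracted; free RNA = intact/disrupted signal.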

luciferase (Luc) mRNA [3] = test: Luciferase expression (whole body bioluminescence) after intravenous administration to mice; assay type: in vivo; conditions: for Novel lipid/MC3 expression ratio, i.v. / Novel lipid/MC3 ratio, i.v.: intravenous, luciferase; for Novel lipid/MC3 expression ratio, i.v.: 6 hr. time point, relative to MC3 formulation; for Novel lipid/MC3 ratio, i.v.: Table 3G, 6 hr. timepoint, relative to MC3
In short: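 Mice (n=6) received lipid nanoparticle formulations carrying luciferase mRNA intravenously at 0.5 mg/kg. Whole-body bioluminescence was measured at 3, 6 and 24 h. Total flux was taken as area under the curve and expressed relative to a standard MC3 formulation.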

luciferase (Luc) mRNA [4] = test: Luciferase expression after intramuscular administration to mice; assay type: in vivo; conditions: intramuscular; for Novel lipid/MC3 expression ratio, i.m. Luc: luciferase, 6 hr. time point, relative to MC3 formulation
Excerpt: The numbers 1-7 in this figure correspond to MC3, Compounds 168-170, and 173-175 respectively.
FIGS. 18A and 18B show the results of luciferase expression measured upon intramuscular administration of various nanoparticle compositions to CD-1 mice at 0.01 mpk. FIG. 18A is a bar graph showing total flux at 6 hr after administration. The numbers above each bar indicate the expression ratio relative to MC3. […] Numbers 1-11 in the Figures refer to compositions containing the following: 1: MC3, 2: Compound 143, 3: Compound 49; 4: Compound 113; 5: Compound 61; 6: Compound 72; 7: Compound 75; 8: Compound 71; 9: Compound 128; 10: Compound 156; 11: Compound 157.
The numbers 1-9 in this figure correspond to MC3, and Compounds 178, 181, 182, 218, 198, 200, 233, and 239, respectively.
The total flux (measured by area under the curve, AUC) induced by administration of a formulation including a given lipid relative to that induced by administration of a formulation including MC3 was also measured for several lipids.
Sample formulations including modified luciferase (Luc) mRNA prepared and administered intramuscularly and the resulting expression and immunogenicity were evaluated simultaneously. Formulations including compounds according to Formula (I), (IA), (IB), (II), (IIa), (IIb), (IIc), (IId), (IIe), (IIf), (IIg), or (III) were prepared and administered at dose of and 0.01 mpk.

modified luciferase = test: Luciferase expression in liver, lung, spleen and femur 6 hours after intravenous administration to mice; assay type: in vivo; conditions: 6 hours after intravenous 0.5 mpk, mice
In short: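 Nanoparticle formulations of the modified luciferase were given intravenously to mice (n=3) at 0.5 mpk. Bioluminescence was measured after 6 hours as total light flux. Standard MC3 formulation and PBS run as controls.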

IL-6, IP-10 = test: Cytokine induction (IL-6, IP-10) in mice 6 hours after intravenous administration; assay type: in vivo; parameters: unit not given here; conditions: intravenous 0.5 mpk
Excerpt: The introduction of foreign material into a mammalian body induces an innate immune response that promotes cytokine production. Such immune responses to, for example, nanoparticle compositions including therapeutic and/or prophylactics, are undesirable. The induction of certain cytokines is thus measured to evaluate the […] of nanoparticle compositions. The concentrations of various cytokines in mice upon intravenous administration of nanoparticle compositions presented in Table 1A at a dosage of 0.5 mpk was measured at 6 hours. The standard MC3 formulation and a PBS control were also tested. As is evident in Table 7, IL-6 induction was highest for compositions including Compounds 1, 3, 9, 19, and 26, while IP-10 induction was highest for compositions including Compounds 3, 4, 7, 20, and 26. IL-6 induction was lowest for compositions including Compounds 4, 11, 12, and 28. IP-10 induction was lowest for compositions including Compounds 10, 11, 12, 13, 15, 17, and 18.

[5] = Lipid clearance: mouse liver tissue level and % dose remaining in liver after intravenous administration; assay type: in vivo; conditions: mouse, liver, 0.5 mg/kg
[6] = Table 1A, lipid:DSPC:cholesterol:PEG-DMG 50:10:38.5:1.5 mol %
[7] = Table 1E, compositions for subcutaneous administration
[8] = Table 1D, compositions for subcutaneous administration, # formulated with hEPO mRNA
[9] = Table 1B, formulated with hEPO mRNA

Structure (SMILES)	Size [1, 6] [nm]	EE [2, 6] [%]	concentration at 6 h [5] [ng/g]	concentration at 24 h [5] [ng/g]	other results
CCCCCCCCCN(CCCO)CCCCCCCC(=O)OC(CCCCCCCC)CCCCCCCC [Compound 7, Heptadecan-9-yl 8-((3-hydroxypropyl)(nonyl)amino)octanoate]	118.9	86.10	–	–	Novel lipid/MC3 expression ratio, i.v. (luciferase (Luc) mRNA [3]): 0.88; Novel lipid/MC3 expression ratio, i.m. Luc (luciferase (Luc) mRNA [4]): 1.10; Total Flux, Liver (modified luciferase): 2.49E+09; Total Flux, Lung (modified luciferase): 3.95E+07; Total Flux, Spleen (modified luciferase): 4.83E+08; Cytokine induction, IL-6 (IL-6, IP-10): 116.35; Cytokine induction, IP-10 (IL-6, IP-10): 4959.16
CCCCCCCCCOC(=O)CCCCCCCN(CCO)CCCCCCCCCC(=O)OC(CCCCCCCC)CCCCCCCC [Compound 23, Heptadecan-9-yl 10-((2-hydroxyethyl)(8-(nonyloxy)-8-oxooctyl)amino) decanoate]	104.5	92.68	–	–	Size [1, 7]: 70.5 nm; Novel lipid/MC3 expression ratio, i.v. (luciferase (Luc) mRNA [3]): 0.04; Novel lipid/MC3 expression ratio, i.m. Luc (luciferase (Luc) mRNA [4]): 0.30; Cytokine induction, IL-6 (IL-6, IP-10): 94.00; Cytokine induction, IP-10 (IL-6, IP-10): 1015.95
CCCCCCCCC(CCCCCCCC)OC(=O)CCCCCCCN(CCO)CCCC(=O)OC(CCCCC)CCCCCCCC (stereo not shown) [Compound 71, Heptadecan-9-yl 8-((2-hydroxyethyl)(4-oxo-4-(tetradecan-6-yloxy)butyl)amino)octanoate]	71	97.54	–	–	Novel lipid/MC3 expression ratio, i.v. (luciferase (Luc) mRNA [3]): 0.42; Novel lipid/MC3 expression ratio, i.m. Luc (luciferase (Luc) mRNA [4]): 0.08; Total Flux, Liver (modified luciferase): 7.93E+08; Total Flux, Lung (modified luciferase): 4.86E+06; Total Flux, Spleen (modified luciferase): 8.04E+06
CCCCCCCCCC(=O)OC(C)CCCCCCN(CCO)CCCCCCCC(=O)OC(CCCCCCCC)CCCCCCCC (stereo not shown) [Compound 98, 8-((8-(Heptadecan-9-yloxy)-8-oxooctyl)(2-hydroxyethyl)amino)octan-2-yl decanoate]	–	94.4	24800	13600	Size [1, 8]: 74.8 nm; Novel lipid/MC3 ratio, i.v. (luciferase (Luc) mRNA [3]): 3.16
CCCCCCCCCOC(=O)CCCCCCCN(CCCCCCCC(=O)OC(CCCCCCCC)CCCCCCCC)CCCNS(C)(=O)=O [Compound 109, Heptadecan-9-yl 8-((3-(methylsulfonamido)propyl)(8-(nonyloxy)-8-oxooctyl)amino)octanoate]	81.1	–	–	–	Size [1, 9]: 75 nm; Size [1, 7]: 67.0 nm; EE [2, 9]: 98.29%; Novel lipid/MC3 expression ratio, i.v. (luciferase (Luc) mRNA [3]): 0.35; Total flux 6 hours after intramuscular administration, 0.01 mpk Dose (luciferase (Luc) mRNA [4]; Luc mRNA, 0.01 mpk, 6 hours): 1.18E+08 p/s; Total Flux, Liver (modified luciferase): 8.17E+08; Total Flux, Lung (modified luciferase): 6.03E+06; Total Flux, Spleen (modified luciferase): 4.81E+07
CCCCCCCCCOC(=O)CCCCCCCN(CCCCCCCC(=O)OC(CCCCCCCC)CCCCCCCC)C(C)CO (stereo not shown) [Compound 157, Heptadecan-9-yl 8-((1-hydroxypropan-2-yl)(8-(nonyloxy)-8-oxooctyl)amino)octanoate]	61	96.04	–	–	AUC (luciferase (Luc) mRNA [3]; intravenous administration (Table 3D)): 2.481E+011 p/s*h; Novel lipid/MC3 expression ratio, i.m. Luc (luciferase (Luc) mRNA [4]): 0.79; Total Flux, Liver (modified luciferase): 2.27E+09; Total Flux, Lung (modified luciferase): 6.70E+06; Total Flux, Spleen (modified luciferase): 5.15E+07
CCCCCCCCCOC(=O)CCCCCCCN(CCO)CCCCCCCC(=O)OC(CCC1CC1CCCC)CCC1CC1CCCC (stereo not shown) [Compound 160, 1,5-Bis(2-butylcyclopropyl)pentan-3-yl 8-((2-hydroxyethyl)(8-(nonyloxy)-8-oxooctyl)amino)octanoate]	89.0	94.0	51.5	0	–
CCCCCCCCC(CCCCCCCC)OC(=O)CCCCCCCN(CCO)C(C)CCCCCCCCOC(=O)CCCCCCC (stereo not shown) [Compound 161, Heptadecan-9-yl 8-((2-hydroxyethyl)(10-(octanoyloxy)decan-2-yl)amino)octanoate]	67.6	94.3	187	0	–
CCCCCCCCC(CCCCCCCC)C(=O)OCCCCCCCN(CCO)C(C)CCCCCCCCOC(=O)CCCCCCC (stereo not shown) [Compound 162, 7-((2-Hydroxyethyl)(10-(octanoyloxy)decan-2-yl)amino)heptyl 2-octyldecanoate]	72.7	94.1	261	0	–
CCCCCCCCCOC(=O)C(C)CCCCCCN(CCO)CCCCCCCOC(=O)C(CCCCCCCC)CCCCCCCC (stereo not shown) [Compound 163, 7-((2-Hydroxyethyl)(7-methyl-8-(nonyloxy)-8-oxooctyl)amino)heptyl 2-octyldecanoate]	88.3	93.2	32100	17900	Size [1, 8]: 78.0 nm; Novel lipid/MC3 ratio, i.v. (luciferase (Luc) mRNA [3]): 3.45
CCCCCCCCCC(C)(O)CCCCCCCCN(CCO)CCCCCCCC(=O)OC(CCCCCCCC)CCCCCCCC (stereo not shown) [Compound 171, Heptadecan-9-yl 8-((9-hydroxy-9-methyloctadecyl)(2-hydroxyethyl)amino)octanoate]	100.5	85.0	47000	32800	–
CCCCCCCCC(CCCCCCCC)OC(=O)CCCCCCCN(CCO)CCCCCCCC(=O)O[C@H](C)CCCCCCCC [Compound 172, (R)-Decan-2-yl 8-((8-(heptadecan-9-yloxy)-8-oxooctyl)(2-hydroxyethyl)amino)octanoate]	77.3	95.4	16000	2990	–
CCCCCCCCCOC(=O)CCCCCCCN(CCO)CCCCCCCC(=O)OC(COCCCCCC)COCCCCCC [Compound 183, 1,3-Bis(hexyloxy)propan-2-yl 8-((2-hydroxyethyl)(8-(nonyloxy)-8-oxooctyl)amino)octanoate]	245.3	32.3	69.9	0	–
CCCCCCCCC(CCCCCCCC)OC(=O)CCCCCCCN(CCO)CCCCCCCC(=O)OCC(C)CCCCCCC (stereo not shown) [Compound 184, Heptadecan-9-yl 8-((2-hydroxyethyl)(8-((2-methylnonyl)oxy)-8-oxooctyl)amino)octanoate]	77.2	94.2	260	0	Size [1, 9]: 85.8 nm; EE [2, 9]: 96.5%
CCCCCCCCCCCOC(=O)CCCCCN(CCO)CCCCCC(=O)OC(CCCCCCCCCC)CCCCCCCCCC [Compound 185, Henicosan-11-yl 6-((2-hydroxyethyl)(6-oxo-6-(undecyloxy)hexyl)amino)hexanoate]	69.6	98.3	31200	27000	–
CCCCCCCOC(=O)CCCCCCCCCN(CCO)CCCCCCCCCC(=O)OC(CCCCCC)CCCCCC [Compound 186, Heptyl 10-((2-hydroxyethyl)(10-oxo-10-(tridecan-7-yloxy)decyl)amino)decanoate]	92.2	87.2	42.8	0	–
